Laboratory results as given in patent US20160238590A1, “COMPOSITIONS AND METHODS RELATED TO OAT SENSITIVITY” (IMMUSANT, INC., priority 2013, published 2016).
Where no end group is shown, it is not given here. [ ]: non-standard residue; d: D form. pGlu = O=C1CC[C@@H](C(=O)O)N1

Legend:
Assay type in all cases: cell-based, human
Patient 9 TCC-02 = assay: IFN-γ ELISpot with T cell clone; conditions: TCC Patient 9 TCC-02, peptide 50 μg/mL
Procedure, shortened: (§1)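 Patient-derived T cell clones were isolated by CFSE-based proliferation to antigen followed by single-cell sorting, then expanded in IL-2 and IL-4. Specificity was tested by IFN-γ ELISpot using irradiated HLA-matched PBMC as antigen-presenting cells.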

Patient 2 TCC-02 = assay: IFN-γ ELISpot with T cell clone; conditions: TCC Patient 2 TCC-02, peptide 25 μg/mL
Procedure, shortened: as §1

Patient 2 TCC-01 = assay: IFN-γ ELISpot with T cell clone
Procedure, shortened: as §1

Patient 8 TCC-01 = assay: IFN-γ ELISpot with T cell clone; conditions: TCC Patient 8 TCC-01, peptide 25 μg/mL
Procedure, shortened: as §1

Patient 2 TCC-03 = assay: IFN-γ ELISpot with T cell clone; conditions: TCC Patient 2 TCC-03, peptide 25 μg/mL
Procedure, shortened: as §1

Patient 6 TCC-01 = assay: IFN-γ ELISpot with T cell clone
Procedure, shortened: as §1

Patient 10 TCC-01 = assay: IFN-γ ELISpot with T cell clone; conditions: TCC Patient 10 TCC-01, peptide 50 μg/mL
Procedure, shortened: as §1

Patient 14 TCC-01 = assay: IFN-γ ELISpot with T cell clone; conditions: TCC Patient 14 TCC-01, peptide 50 μg/mL
Procedure, shortened: as §1

Patient 9 TCC-01 = assay: IFN-γ ELISpot with T cell clone; conditions: TCC Patient 9 TCC-01, peptide 50 μg/mL
Procedure, shortened: as §1

PBMC [1] = assay: IFN-γ ELISpot on PBMC of CD patients after 3-day barley challenge; conditions: for responses compared with DQ2.5-hor-3a responses: 2/3 patients; for responses compared with DQ2.5-hor-3a responses / responses compared with DQ2.5-ave-1c responses: after barley challenge (FIG. 1b); for response following barley challenge: 3 oats responders, titrating concentrations (FIG. 1b); for responses compared with DQ2.5-ave-1c responses: third patient; for patients responding following pure barley challenge: 3 patients that had previously responded to avenin peptides following oats challenge
Procedure, shortened: (§2)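 PBMC from HLA-DQ2.5+/DQ8+ biopsy-proven coeliac patients on gluten-free diet ≥4 weeks, collected on day 6 after starting a 3-day oral challenge (oats 100 g/day, barley 150 g/day, or wheat/barley/rye muffins 22-25 g each daily). Responses to avenin, hordein and gluten peptide libraries, some deamidated or tTG-treated, measured by IFN-γ ELISpot.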

PBMC [2] = assay: IFN-γ ELISpot on PBMC of CD patients after combined wheat, barley, and rye challenge
Description: Australian Caucasian HLA-DQ2.5^+ and/or HLA-DQ8^+ CD subjects were recruited by advertisement in the Coeliac Society of Victoria newsletter and all had biopsy-proven CD conforming to ESPGHAN criteria. Patients had been on strict gluten free diet for at least 4 weeks prior to commencing grain challenge. Patients underwent 3-day grain challenge with oats, barley, or combined wheat, barley, and rye muffins, and 6 days after commencement, blood was collected. Day 0 responses were not observed in the selection of patients tested, as described previously^8.
Oats challenge consisted of 100 g dry weight daily of one of three commercial brands of oats: one not tested for wheat contamination (Uncle Toby's; Oats #1), and two shown by R5 ELISA to contain less than 20 ppm wheat gluten (Tilquhilie Pudding; Oats #2 and Freedom Food; Oats #3). Barley challenge consisted of pearl barley (Ward McKenzie) cooked into a risotto (150 g dry weight daily) and the wheat challenge consisted of four 50 g slices of wheat bread daily (Baker's Delight white loaf cut to toasting thickness). The combined wheat, barley, and rye challenge consisted of muffins baked with wheat flour (White Wings), barley flour (Four Leaf Milling), and rye flour (Four Leaf Milling; 22-25 g dry weight each daily). A symptom diary based on a […] Likert scale was completed by participants daily from baseline until day 6.
Two avenin peptide libraries were utilized for epitope screening. These were designed using avenin sequences from GenBank and a customized algorithm, as previously described^9. The initial library consisted of 199 screening-grade 20 mers including all possible 12 mers (Mimotopes). This library was screened with and without tTG pre-treatment. The second library consisted of additional avenin sequences that were synthesized with glutamate substitution at sites predicted to be deamidated by published algorithms^10, 11 removing the requirement for tTG treatment. This library contained 369 screening-grade 20 mers, including all possible 12 mers (Pepscan). The second round avenin library contained wild-type and deamidated versions of the most immunogenic sequences (25 high quality 16 mers from Mimotopes). High quality peptides containing previously described immunogenic sequences from wheat, barley, and rye were used to test for cross-reactivity^8 (Pepscan). High quality hordein and avenin peptides for TCC testing and biochemical studies were ordered from Pepscan, Mimotopes, or GL Biochem.
Peripheral blood mononuclear cells (PBMC) were isolated from heparinized whole blood using Ficoll-Paque™ Plus density-gradient centrifugation (GE Healthcare). IFN-γ ELISpot (Mabtech) was set up as previously described^8.

PBMC [3] = assay: IFN-γ ELISpot on PBMC of CD patients on day 6 after 3-day oats challenge
Procedure, shortened: as §2

[4] = TCC Patient 2 TCC-01, peptide 25 μg/mL
[5] = TCC Patient 2 TCC-01, peptide 50 μg/mL
[6] = TCC Patient 6 TCC-01, peptide 25 μg/mL
[7] = TCC Patient 6 TCC-01, peptide 50 μg/mL
[8] = Patient 1, peptide 25 μg/ml, after barley challenge
[9] = Patient 2, peptide 25 μg/ml, after barley challenge
[10] = Patient 3, peptide 25 μg/ml, after barley challenge
[11] = 19 HLA-DQ2.5+ CD patients, peptide 10 μg/mL (FIG. 1a)

Sequence | IFN-γ ELISpot response (raw SFU) (Patient 9 TCC-02) | IFN-γ ELISpot response (SFU) (Patient 2 TCC-02) | IFN-γ ELISpot response (SFU) (Patient 2 TCC-01; [4]) | significant SFU as a percentage of maximal peptide SFU (Patient 2 TCC-01; [4]) | IFN-γ ELISpot response (raw SFU) (Patient 2 TCC-01; [5]) | significant SFU as a percentage of maximal peptide SFU (Patient 2 TCC-01; [5]) | IFN-γ ELISpot response (SFU) (Patient 8 TCC-01) | significant SFU as a percentage of maximal peptide SFU (Patient 8 TCC-01) | IFN-γ ELISpot response (SFU) (Patient 2 TCC-03) | significant SFU as a percentage of maximal peptide SFU (Patient 2 TCC-03) | IFN-γ ELISpot response (SFU) (Patient 6 TCC-01; [6]) | significant SFU as a percentage of maximal peptide SFU (Patient 6 TCC-01; [6]) | IFN-γ ELISpot response (raw SFU) (Patient 6 TCC-01; [7]) | significant SFU as a percentage of maximal peptide SFU (Patient 6 TCC-01; [7]) | IFN-γ ELISpot response (raw SFU) (Patient 10 TCC-01) | IFN-γ ELISpot response (raw SFU) (Patient 14 TCC-01) | significant SFU as a percentage of maximal peptide SFU (Patient 14 TCC-01) | IFN-γ ELISpot response (raw SFU) (Patient 9 TCC-01) | responses compared with DQ2.5-hor-3a responses (PBMC [1]) | response following barley challenge (PBMC [1]) | also measured
PEQPFPEQPQPYPQQP (not fully specified (C-terminus)) | 0 SFU | 5 SFU | 151 SFU | ** (**: 40-70%) | 202 SFU | ** (**: 40-70%) | 145 SFU | *** (***: >70%) | 159 SFU | *** (***: >70%) | 59 SFU | ** (**: 40-70%) | 73 SFU | *** (***: >70%) | 3 SFU | 66 SFU | *** (***: >70%) | 0 SFU | – | – | –
QPQPYPEQPQPYP ([pGlu]PQPYPEQPQPYP-NH2; SMILES NC(=O)CC[C@H](NC(=O)[C@H](CCC(=O)O)NC(=O)[C@@H]1CCCN1C(=O)[C@H](Cc1ccc(O)cc1)NC(=O)[C@@H]1CCCN1C(=O)[C@H](CCC(N)=O)NC(=O)[C@@H]1CCCN1C(=O)[C@@H]1CCC(=O)N1)C(=O)N1CCC[C@H]1C(=O)N[C@@H](CCC(N)=O)C(=O)N1CCC[C@H]1C(=O)N[C@@H](Cc1ccc(O)cc1)C(=O)N1CCC[C@H]1C(N)=O) | 0 SFU | 1 SFU | 232 SFU | *** (***: >70%) | 316 SFU | *** (***: >70%) | 175 SFU | *** (***: >70%) | 132 SFU | *** (***: >70%) | 86 SFU | *** (***: >70%) | 52 SFU | ** (**: 40-70%) | 3 SFU | 27 SFU | * (*: 20-40%) | 1 SFU | almost equivalent | responded to all three peptides to varying degrees | responses compared with DQ2.5-ave-1c responses (PBMC [1]): equivalent
PEQPIPEQPQPYPQQ | 2 SFU | 1 SFU | 1 SFU | – | 1 SFU | – | 143 SFU | *** (***: >70%) | 156 SFU | *** (***: >70%) | 107 SFU | *** (***: >70%) | 86 SFU | *** (***: >70%) | 3 SFU | 48 SFU | ** (**: 40-70%) | 4 SFU | – | responded to all three peptides to varying degrees | patients responding following pure barley challenge (PBMC [1]): All three patients responded; IFN-γ ELISpot response (raw SFU) (PBMC [1]; [8]): 317 SFU; significant SFU as a percentage of maximal peptide SFU (PBMC [1]; [8]): *** (***: >70%); IFN-γ ELISpot response (raw SFU) (PBMC [1]; [9]): 162 SFU; significant SFU as a percentage of maximal peptide SFU (PBMC [1]; [9]): *** (***: >70%); IFN-γ ELISpot response (raw SFU) (PBMC [1]; [10]): 142 SFU; significant SFU as a percentage of maximal peptide SFU (PBMC [1]; [10]): *** (***: >70%); responses compared with DQ2.5-ave-1c responses (PBMC [1]): slightly lower; patients that did not respond to either peptide (PBMC [2]; [11]): 9 patients; patients that responded to both peptides (PBMC [2]; [11]): 8 patients; patients that responded to the hordein peptide but not the avenin peptide (PBMC [2]; [11]): 2 patients; responses compared with AAB32025 (7-21) [Q7 to pyroE, Q15 to E, and Q21 to Q-amide] responses (PBMC [2]; combined wheat, barley, and rye challenge): generally higher
YQPYPEQEQPILQQ | 2 SFU | 145 SFU | 238 SFU | *** (***: >70%) | 300 SFU | *** (***: >70%) | 114 SFU | ** (**: 40-70%) | 1 SFU | – | 3 SFU | – | 2 SFU | – | 5 SFU | 18 SFU | – | 4 SFU | lower | responded to all three peptides to varying degrees | significant SFU as a percentage of maximal peptide SFU (Patient 2 TCC-02): ** (**: 40-70%); patients responding following pure barley challenge (PBMC [1]): All three patients responded; IFN-γ ELISpot response (raw SFU) (PBMC [1]; [8]): 59 SFU; significant SFU as a percentage of maximal peptide SFU (PBMC [1]; [8]): ^^ (^^: 10-20%); IFN-γ ELISpot response (raw SFU) (PBMC [1]; [9]): 204.5 SFU; significant SFU as a percentage of maximal peptide SFU (PBMC [1]; [9]): *** (***: >70%); IFN-γ ELISpot response (raw SFU) (PBMC [1]; [10]): 26 SFU; significant SFU as a percentage of maximal peptide SFU (PBMC [1]; [10]): ^^ (^^: 10-20%); patients with lower polyclonal T cell responses compared with 1103203A (31-45) peptide (PBMC [1]; after barley challenge): 2/3; response following oats challenge (PBMC [3]; three additional patients that responded to the peptide after barley challenge): did not respond; response after previous oats challenge (PBMC [3]; three patients that responded after the combined grain challenge): no responses; patients that did not respond to either peptide (PBMC [2]; [11]): 9 patients; patients that responded to both peptides (PBMC [2]; [11]): 8 patients
